Experimental findings from a melting point compilation (Tetko et al.; mined from patent text by program, amines drawn as free bases though some values may be those of a salt) are described below.

Take `CCOC(=O)c1cn(C(C)C(OC)OC)c2c(F)c(F)c(F)cc2c1=O` (configuration not stated): the melting point was in the range of 125 to 126 °C.
With `CCCCCC[C@@H]1C(=O)O[C@H]1OC(=O)N(CCCCC)c1ccccc1Oc1ccccc1` (relative stereo) the figure was 63.1 to 66.3 °C; with `COC(=O)c1ccc2c(c1)SC(c1ccccc1)C(c1ccc3c(c1)NC(=O)CO3)=C2` (configuration not stated), 217 to 219 °C; with `O=C(O)CCCc1cc2cc(Cl)ccc2n1S(=O)(=O)c1cccc2ccccc12`, 206 to 210 °C.
Turning to `CCCCCCOc1ccc2c(CC#N)c(OCCCCCC)ccc2c1CC#N`, the melting point lay in the range of 135 to 136 °C.
Compound `COC(=O)c1sc(-c2ccccc2)cc1N=NN(C)C` yielded a melting point of 92 to 94 °C.
For `CCOC(=O)c1cccc(OP(=O)(CCN2CCCNc3c2c(=O)c3=O)Oc2cccc(C(=O)OCC)c2)c1`, the melting point was in the range of 116 to 117 °C.
The compound `CCC1c2cccn2-c2c(cc(F)c(F)c2F)N1S(=O)(=O)c1ccc(O)cc1` (configuration not stated) showed a melting point of 155 to 156 °C.
Compound `CCOC(=O)NC1N=C(c2ccccc2)c2ccccc2-n2c(C)nnc21` (configuration not stated) registered a melting point of 198 to 202 °C.
Turning to `O=C(O)CNC(=O)c1cccc2c(-c3ccccc3)c([N+](=O)[O-])oc12`, the melting point lay in the range of 123 to 126 °C.
With `Cc1cccc2nc(NC(=O)c3ccc(C4(C(=O)O)CCC4)cc3)cn12` the figure was 272 °C.
As to `FC(F)(F)C(F)(F)CCCSCCCCCOc1ccc(C2=C(c3ccccc3)CCCc3ccccc32)cc1`, the melting point lay within 84 to 85 °C.
As for `FC(F)(F)c1nc(-c2ccc(Cl)cc2)c(-c2ccc(Cl)cc2)s1`, the melting point was 101 to 102 °C.
`O=C(NCCCl)Nc1ccc2[nH]ccc2c1`: the melting point was 159 to 161 °C.
As for `CC(C)(Br)c1ccc2occ(C#N)c(=O)c2c1`, the figure is 115 to 117 °C.
`N#CC(c1ccccc1)(c1ccccc1)C1CCN(C(=O)Oc2ccccc2)C1` (configuration not stated) displayed a melting point of 154 to 155 °C.
In turn, `COc1cc(Br)cc2c1OCCC2=O` returned a melting point of 137 °C.
Compound `CC(=O)Nc1cccc2c1NC(=O)C2c1ccccc1` (configuration not stated) came in with a melting point of 258 to 262 °C.
`CCOC(=S)c1ccc2scc(C)c2c1` gave a melting point of 67 to 69 °C.
On to `Cc1c(Cl)ccc(S(C)(=O)=O)c1C=NO`, for which the melting point was 164 to 168 °C.
As to `CCOC(=O)C1=C(C)NC(c2nccn2C)=NC1c1ccc(F)cc1` (configuration not stated), the melting point fell in the range of 134 to 136 °C.
Compound `COCCOc1cc(N)c([N+](=O)[O-])cc1I` displayed a melting point of 121 to 122 °C.
`CN1C(=O)[C@H](NC(=O)/C=C/c2ccc(Cl)c(Cl)c2)N=C(c2ccccc2)c2ccccc21` yielded a melting point of 145 to 147 °C.
As for `COc1ccc([C@@H]2Sc3cc(C)c(C)cc3N(CCN(C)C)C(=O)[C@@H]2O)cc1`, the figure is 117 to 118 °C; as for `CN(c1cccc2cc(-c3ncc(CCl)s3)[nH]c12)S(=O)(=O)c1cccs1`, 204 to 205 °C; as for `NC(=O)CCCCc1c[nH]c2ccccc12`, 134 to 139 °C.
`COc1ccc2c(=O)c(S(C)(=O)=O)cn(C)c2c1` came in with a melting point of 212 to 214 °C.
The compound `CN(C)C1=CC(=O)c2ccccc2OC1` had a melting point of 136 °C.
Turning to `CCC(CC)(CCl)c1cc(Cl)nnc1Cl`, the melting point was 45 to 47 °C.
`O=C(Cn1c(-c2ccc(Cl)cc2)nc2cccnc21)N1CCSC1` gave a melting point of 215 to 218 °C.
As for `CNC(=O)c1cc(-n2cnn(Cc3ccc(F)cc3)c2=O)n[nH]1`, the figure is 268 to 269 °C.
`Clc1ccc2nc3n(c2c1)CCC3` returned a melting point of 136 °C.
Take `CCCc1nc(C(C)=O)c(C#N)[nH]1`: the melting point was 93 to 95 °C.
As for `COc1ccccc1C=CC=C(CC(N)C(=O)O)C(=O)O` (configuration not stated), the figure is 187 to 189 °C.
`N#CC=C1CCN(c2ccc(N3C[C@H](CNC(=O)CO)OC3=O)cc2F)CC1` came in with a melting point of 68 to 70 °C.
`Cn1nc(-c2cnc(N)nc2-c2ccccc2)ccc1=O` registered a melting point of 254 to 255 °C.
With `Cc1cc(C)nc(OC(C)C(=O)NS(=O)(=O)c2ccccc2)n1` (configuration not stated) the figure was 188 °C; with `ClCCCOc1ccc(-n2ccnc2)cc1`, 53 to 55 °C; with `O=C(c1cccn1N1C(=O)c2ccccc2C1=O)C1CC1`, 150 to 152 °C.
With `CCC(=O)N1CCC(NC(=O)Nc2cccc(F)c2)CC1` the figure was 158 to 164 °C.
Compound `Cc1ccc(Sc2ccnc3sc(C(N)=O)cc23)cc1` had a melting point of 280 to 282 °C.
Compound `CCCCCCCCCCC(O)C(O)CN` (configuration not stated) had a melting point of 98 to 100 °C.
`COc1cc(C(=O)Cc2ccccc2C)cc([N+](=O)[O-])c1O` came in with a melting point of 150 to 151 °C.
Regarding `c1ccc(NCC2CCNCC2)cc1`, the melting point is 60 to 61 °C.
Compound `CC(=O)c1c(C)sc2ccnn12` displayed a melting point of 130 to 131 °C.
Regarding `CCOC(=O)C=Cc1cc(OC)c(OC)c(OC)c1`, the melting point was 63.4 °C.
`CCOC(=O)Cc1c(C(=O)OCC)sc2c1cc(C(=O)OCC)n2CC(=O)OCC` returned a melting point of 190 °C.
`O=C(CCCCCCC(=O)N1CCN(c2cccc(C(F)(F)F)c2)CC1)NO`: the melting point fell in the range of 126 to 128 °C.
In turn, `O=C1NC(=O)C(Nc2ccc(Cl)c3ccccc23)S1` (configuration not stated) came in with a melting point of 205 to 206 °C.
`Cc1nc2ccc(OCCCN3CCC(OC(c4ccccc4)c4ccccc4)CC3)nn2n1` gave a melting point of 134 to 136 °C.
Take `OCCC1(c2ccccc2)CCNC1` (configuration not stated): the melting point lay within 106 to 110 °C.
Compound `O=C(O)Cc1cccc(Cn2cc(C3c4ccccc4C=Cc4ccccc43)c(=S)[nH]c2=O)c1` came in with a melting point of 135 to 137 °C.
Consider `CC(C)(C)OC(=O)Nc1ccc(-c2cccc3ccccc23)cc1[N+](=O)[O-]`, for which the melting point fell in the range of 60 to 66 °C.
Compound `COc1cc2nccc(N3CCN(C(=O)Nc4ccc(Oc5ccccc5)cc4)CC3)c2cc1OC` came in with a melting point of 204 to 206 °C.
As to `CCOC(=O)Cc1ccc2c(c1)C(=O)c1ccccc1CN2`, the melting point lay in the range of 98 to 100 °C.
In the case of `COc1cccc(OC)c1-c1nc2nccnc2[nH]1`, the melting point lay within 248 to 249 °C.
As to `COCn1nccc1C(=O)c1cc2c(c(Cl)c1Cl)OC(C(=O)O)O2` (configuration not stated), the melting point is 168 to 170 °C.
As for `CC1(C(=O)O)OCCC2=CC3=CC=CCC3=C21` (configuration not stated), the figure is 171 to 173 °C; as for `Fc1ccc(-c2cc(CCOCc3ccccc3)cc(OCCCCCl)c2)cc1`, 48 to 49 °C.
For the compound `OC(CCc1cccnc1)COc1ccc2ccccc2c1` (configuration not stated), the melting point was 93 to 95 °C.
On to `COc1c(C(=O)O)[nH]c2cccc(C)c12`, for which the melting point was determined as 136 °C.
Compound `CCOC(=O)CCc1cc(O)nn1C` gave a melting point of 132 to 135 °C.
The compound `O=c1ccn(CCO)c(Cc2ccccc2)c1O` showed a melting point of 228 to 230 °C.
As for `CCCc1nccn1-c1nc(Cl)nc2c1ncn2C1OC(COC(C)=O)C(OC(C)=O)C1OC(C)=O` (configuration not stated), the figure is 126 to 128 °C; as for `Cc1oc(-c2ccccc2)nc1COc1ccc(Cn2cc(C=O)c(-c3cccs3)n2)cc1`, 136 to 137 °C.
For `COc1ccccc1CN=C(Cc1ccccc1)N1CC2C(=O)CCC(c3ccccc3)(c3ccccc3)C2C1` (configuration not stated), the melting point came to 146 °C.
As for `Clc1ccc(Cl)c(COC2COC(c3ccccc3)OC2)c1Cl` (configuration not stated), the figure is 93.5 to 94 °C.

Usually melting point stands for the temperature, or range, at which the solid turns liquid.
